*1 amine or outer side, *2 acyl side, *3 side chain or, on linkers, in order; H or OH if unused. Where a SMILES comes first, the peptide text is derived from it. Side-chain parts run from the residue outwards. [ ]: non-standard residue; d: D form. The star is where a group is joined. C20 diacid = O=C(O)CCCCCCCCCCCCCCCCCCC(=O)*; γGlu = O=C(O)[C@H](CCC(=O)[*:2])N[*:1]; AEEA = NCCOCCOCC(=O)O; Aib = CC(C)(N)C(=O)O
Target: T1, human GLP-2 receptor (Homo sapiens, UniProt O95838, D470N)
T1 construct: expressed in transfected cells
T1 sequence (O95838 1-553 D470N): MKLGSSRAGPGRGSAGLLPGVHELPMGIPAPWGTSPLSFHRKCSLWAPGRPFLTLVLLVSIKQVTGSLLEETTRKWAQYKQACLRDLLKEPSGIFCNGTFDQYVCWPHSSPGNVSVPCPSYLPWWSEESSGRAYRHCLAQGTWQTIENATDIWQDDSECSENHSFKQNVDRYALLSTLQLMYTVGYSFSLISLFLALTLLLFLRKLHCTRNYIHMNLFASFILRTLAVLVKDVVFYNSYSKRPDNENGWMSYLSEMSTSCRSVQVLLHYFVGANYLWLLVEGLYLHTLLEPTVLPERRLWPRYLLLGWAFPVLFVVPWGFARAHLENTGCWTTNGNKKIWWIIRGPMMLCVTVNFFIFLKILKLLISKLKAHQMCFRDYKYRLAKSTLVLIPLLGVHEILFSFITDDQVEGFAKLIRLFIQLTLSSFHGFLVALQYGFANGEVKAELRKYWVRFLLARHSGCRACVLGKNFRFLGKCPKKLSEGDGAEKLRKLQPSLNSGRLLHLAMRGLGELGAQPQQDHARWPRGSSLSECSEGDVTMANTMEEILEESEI
Test: GLP-2 receptor potency assay (cAMP ALPHASCREEN, HEK293 cells stably expressing GLP-2 R)
Type: cell-based
Conditions: cAMP response, HEK293 cells expressing human GLP-2 R; read-out: EC50 GLP-2
Description: One useful in vitro assay for measuring GLP-1 and GLP-2 receptor activity is quantitation of cAMP, i.e. 3′-5′-cyclic adenosine monophosphate, which is a second messenger essential in many biological processes, and one of the most ubiquitous mechanisms for regulating cellular functions.
For subcloning into a mammalian expression vector, primers for subcloning were obtained from DNA-Technology, Risskov, Denmark. The 5′ and 3′ primers used for the PCR reaction include terminal restriction sites for cloning and the context of the 5′ primer is modified to a Kozak consensus without changing the sequence of the product encoded by the ORF. […] The generated PCR product was purified using GFX PCR and Gel band purification kit, digested with restriction enzymes and cloned into the mammalian expression vector using Rapid DNA Ligation Kit. Ligation reaction was transformed to XL10 Gold Ultracompetent cells and colonies were picked for DNA production using ENDOFREE® Plasmid maxi kit. Subsequent sequence analysis was conducted by MWG Eurofins, Germany.
HEK293 cells were transfected using the LIPOFECTAMINE® PLUS transfection method. The day before transfection, HEK293 cells were seeded in two T75 flasks at a density of 2×10^6 cells/T75 flask in cell culturing medium without antibiotics. On the day of transfection, cells were washed with 1× DPBS and medium was replaced with OPTI-MEM© to a volume of 5 mL/T75 flask before addition of LIPOFECTAMINE®-plasmid complexes were added gently and drop wise to the cells in T75 flasks and replaced with growth medium after 3 hours and again to growth medium supplemented with 500 μg/mL G418 after 24 hours. Following 4 weeks in G418 selection, clones were picked and tested in a functional GLP-2 receptor potency assay as described below.
The cAMP ALPHASCREEN® assay from Perkin Elmer was used to quantitate the cAMP response to activation of the GLP1 and GLP2 receptor, respectively. […] Data from test compounds eliciting an increase in the intracellular level of cAMP were normalized relative to the positive and negative control (vehicle) to calculate the EC50 and maximal response from the concentration response curve.

EC50 [nM]	Compound
0.35	CC[C@H](C)[C@H](NC(=O)[C@H](Cc1ccccc1)NC(=O)[C@H](CC(=O)O)NC(=O)[C@H](CCCNC(=N)N)NC(=O)[C@H](C)NC(=O)[C@H](C)NC(=O)[C@H](CCC(=O)O)NC(=O)[C@H](CCCCNC(=O)CC[C@H](NC(=O)CCCCCCCCCCCCCCCCC(=O)O)C(=O)O)NC(=O)[C@H](CC(=O)O)NC(=O)[C@H](CC(C)C)NC(=O)[C@@H](NC(=O)[C@@H](NC(=O)[C@H](C)NC(=O)[C@H](CC(C)C)NC(=O)[C@H](CCC(=O)O)NC(=O)[C@H](CO)NC(=O)[C@H](CO)NC(=O)[C@H](Cc1ccccc1)NC(=O)[C@@H](NC(=O)CNC(=O)[C@H](CCC(=O)O)NC(=O)C(C)(C)NC(=O)[C@@H](N)Cc1c[nH]cn1)[C@@H](C)O)[C@@H](C)O)[C@@H](C)CC)C(=O)N[C@@H](C)C(=O)N[C@@H](Cc1c[nH]c2ccccc12)C(=O)N[C@@H](CC(C)C)C(=O)N[C@H](C(=O)N[C@@H](CCC(=O)O)C(=O)N[C@@H](Cc1c[nH]cn1)C(=O)N[C@@H](CCCCN)C(=O)N[C@H](C(=O)N[C@H](C(=O)N[C@@H](CC(=O)O)C(=O)O)[C@@H](C)O)[C@@H](C)CC)[C@@H](C)CC [Compound 1] (HELM PEPTIDE1{H.[Aib].E.G.T.F.S.S.E.L.A.T.I.L.D.K.E.A.A.R.D.F.I.A.W.L.I.E.H.K.I.T.D}|PEPTIDE2{[O=C(O)CCCCCCCCCCCCCCCCC(=O)[*:2]].[gGlu]}$PEPTIDE1,PEPTIDE2,16:R3-2:R2$$$V2.0)
0.38	CC[C@H](C)[C@H](NC(=O)[C@H](Cc1ccccc1)NC(=O)[C@H](CC(=O)O)NC(=O)[C@H](CCCCNC(=O)COCCOCCNC(=O)COCCOCCNC(=O)CC[C@H](NC(=O)CCCCCCCCCCCCCCCCCCC(=O)O)C(=O)O)NC(=O)[C@H](C)NC(=O)[C@H](C)NC(=O)[C@H](CCC(N)=O)NC(=O)[C@H](CCC(=O)O)NC(=O)[C@H](CC(=O)O)NC(=O)[C@H](CC(C)C)NC(=O)[C@@H](NC(=O)[C@@H](NC(=O)[C@H](C)NC(=O)[C@H](CC(C)C)NC(=O)[C@H](CCC(=O)O)NC(=O)[C@H](CO)NC(=O)[C@@H](NC(=O)[C@H](Cc1ccccc1)NC(=O)[C@@H](NC(=O)CNC(=O)[C@H](CCC(=O)O)NC(=O)C(C)(C)NC(=O)[C@@H](N)Cc1c[nH]cn1)[C@@H](C)O)[C@@H](C)O)[C@@H](C)O)[C@@H](C)CC)C(=O)N[C@@H](C)C(=O)N[C@@H](Cc1c[nH]c2ccccc12)C(=O)N[C@@H](CC(C)C)C(=O)N[C@H](C(=O)N[C@@H](CCC(=O)O)C(=O)N[C@@H](Cc1c[nH]cn1)C(=O)N[C@@H](CCCCN)C(=O)N[C@H](C(=O)N[C@H](C(=O)N[C@@H](CC(=O)O)C(=O)O)[C@@H](C)O)[C@@H](C)CC)[C@@H](C)CC [Compound 46] (H-H[Aib]EGTFTSELATILDEQAAK([AEEA-AEEA-γGlu-C20 diacid])DFIAWLIEHKITD-OH)
0.33	CC[C@H](C)[C@H](NC(=O)[C@H](Cc1ccccc1)NC(=O)[C@H](CC(=O)O)NC(=O)[C@H](CCCNC(=N)N)NC(=O)[C@H](C)NC(=O)[C@H](C)NC(=O)[C@H](CCC(=O)O)NC(=O)[C@H](CCCCNC(=O)CC[C@H](NC(=O)CCCCCCCCCCCCCCCCC(=O)O)C(=O)O)NC(=O)[C@H](CC(=O)O)NC(=O)[C@H](CC(C)C)NC(=O)[C@@H](NC(=O)[C@@H](NC(=O)[C@H](C)NC(=O)[C@H](CC(C)C)NC(=O)[C@H](CCC(=O)O)NC(=O)[C@H](CO)NC(=O)[C@@H](NC(=O)[C@H](Cc1ccccc1)NC(=O)[C@@H](NC(=O)CNC(=O)[C@H](CCC(=O)O)NC(=O)C(C)(C)NC(=O)[C@@H](N)Cc1c[nH]cn1)[C@@H](C)O)[C@@H](C)O)[C@@H](C)O)[C@@H](C)CC)C(=O)N[C@@H](C)C(=O)N[C@@H](Cc1c[nH]c2ccccc12)C(=O)N[C@@H](CC(C)C)C(=O)N[C@H](C(=O)N[C@@H](CCC(=O)O)C(=O)N[C@@H](Cc1c[nH]cn1)C(=O)N[C@@H](CCCCN)C(=O)N[C@H](C(=O)N[C@H](C(=O)N[C@@H](CC(=O)O)C(=O)O)[C@@H](C)O)[C@@H](C)CC)[C@@H](C)CC [Compound 3] (HELM PEPTIDE1{H.[Aib].E.G.T.F.T.S.E.L.A.T.I.L.D.K.E.A.A.R.D.F.I.A.W.L.I.E.H.K.I.T.D}|PEPTIDE2{[O=C(O)CCCCCCCCCCCCCCCCC(=O)[*:2]].[gGlu]}$PEPTIDE1,PEPTIDE2,16:R3-2:R2$$$V2.0)
0.083	CC[C@H](C)[C@H](NC(=O)[C@H](Cc1ccccc1)NC(=O)[C@H](CC(=O)O)NC(=O)[C@H](CCCNC(=N)N)NC(=O)[C@H](C)NC(=O)[C@H](C)NC(=O)[C@H](CCC(N)=O)NC(=O)[C@H](CCCCNC(=O)COCCOCCNC(=O)[C@H](CCCCN)NC(=O)[C@H](CCC(=O)O)NC(=O)[C@H](CCCCN)NC(=O)CC[C@H](NC(=O)CCCCCCCCCCCCCCCCCCC(=O)O)C(=O)O)NC(=O)[C@H](CC(=O)O)NC(=O)[C@H](CC(C)C)NC(=O)[C@@H](NC(=O)[C@@H](NC(=O)[C@H](C)NC(=O)[C@H](CC(C)C)NC(=O)[C@H](CCC(=O)O)NC(=O)[C@H](CO)NC(=O)[C@@H](NC(=O)[C@H](Cc1ccccc1)NC(=O)[C@H](CO)NC(=O)CNC(=O)[C@H](CCC(=O)O)NC(=O)C(C)(C)NC(=O)[C@@H](N)Cc1c[nH]cn1)[C@@H](C)O)[C@@H](C)O)[C@@H](C)CC)C(=O)N[C@@H](C)C(=O)N[C@@H](Cc1c[nH]c2ccccc12)C(=O)N[C@@H](CC(C)C)C(=O)N[C@H](C(=O)N[C@@H](CCC(=O)O)C(=O)N[C@@H](Cc1c[nH]cn1)C(=O)N[C@@H](CCCCN)C(=O)N[C@H](C(=O)N[C@H](C(=O)N[C@@H](CC(=O)O)C(=O)O)[C@@H](C)O)[C@@H](C)CC)[C@@H](C)CC [Compound 57] (HELM PEPTIDE1{H.[Aib].E.G.S.F.T.S.E.L.A.T.I.L.D.K.Q.A.A.R.D.F.I.A.W.L.I.E.H.K.I.T.D}|PEPTIDE2{[O=C(O)CCCCCCCCCCCCCCCCCCC(=O)[*:2]].[gGlu].K.E.K.[O=C(COCCOCCN[*:1])[*:2]]}$PEPTIDE1,PEPTIDE2,16:R3-6:R2$$$V2.0)
